“And” between values parts separate entries of the source, which are not always exact repeats. Equal values may be shown once.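 Values below derive from 48-hour exposures of cells grown in 96-well plates, with endpoints linearly interpolated between the two concentrations bracketing the appropriate inhibition level. At the GI50, growth is halved. TGI denotes the concentration required for complete inhibition of growth.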 Some results are limits rather than exact numbers.

Some test systems named below: HOP-62 NSCLC; 786-0 renal; MCF7 breast; BT-549 breast; T-47D breast; M14 melanoma; CAKI-1 renal; KM12 colon; PC-3 prostate; SW-620 colon.
Experiment in all cases: growth of human tumour cells (NCI), 48 h

For the compound `CCCn1cnc2c(SCc3ccccc3)nc(N)nc21`, the GI50 in the test with HOP-62 NSCLC was more than 100 µM; in the test on 786-0 renal, more than 100 µM; in the test on MCF7 breast it was more than 100 µM; in the test on BT-549 breast, 51.9 µM; with T-47D breast, 56.9 µM; in the test on M14 melanoma, more than 100 µM. For the same compound, the GI50 was 89.3 µM in the test with CAKI-1 renal, more than 100 µM with KM12 colon, 67.9 µM with PC-3 prostate and more than 100 µM in the test on SW-620 colon. Moreover, the TGI in the test on HOP-62 NSCLC, in the test on 786-0 renal, in the test on MCF7 breast, in the test with BT-549 breast, in the test on T-47D breast and with M14 melanoma was more than 100 µM in each case. The TGI in the test on CAKI-1 renal, in the test with KM12 colon, in the test on PC-3 prostate and in the test with SW-620 colon was more than 100 µM in each case.

As to `CCCCCCCCCCCCCCCCS(=O)(=O)c1ccc(NN)cc1`, the TGI in the test with HOP-62 NSCLC, in the test on 786-0 renal, in the test on MCF7 breast, in the test with BT-549 breast, with T-47D breast and with M14 melanoma was more than 10 µM each time. In addition, the TGI in the test with CAKI-1 renal, in the test with KM12 colon, in the test on PC-3 prostate and with SW-620 colon was more than 10 µM each time.

In the case of `CC[C@H](C)[C@H](NC(=O)[C@H]1CCCCN1C)C(=O)N(C)[C@H](C[C@@H](OC(C)=O)c1nc(C(=O)N[C@@H](Cc2ccccc2)C[C@H](C)C(=O)OC)cs1)C(C)C`, the GI50 is 0.00052 µM and 0.0025 µM with HOP-62 NSCLC; 0.000366 µM and 0.0025 µM with 786-0 renal; 0.000385 µM and < 0.0025 µM in the test on BT-549 breast; 11.8 µM with T-47D breast; 0.000331 µM and < 0.0025 µM in the test with M14 melanoma; 0.000792 µM with CAKI-1 renal. In addition, the TGI was more than 25 µM in the test on HOP-62 NSCLC; 14.8 µM with 786-0 renal; more than 25 µM in the test with MCF7 breast; 0.0169 µM and < 0.0025 µM in the test with BT-549 breast; more than 25 µM in the test with T-47D breast; less than 0.0025 µM in the test on M14 melanoma. Moreover, the TGI in the test on KM12 colon, in the test on PC-3 prostate and in the test on SW-620 colon was more than 25 µM each time.

As for `O=C(Nc1ccc(Cl)cc1)Nc1ccccc1CNc1nc(Nc2ccc(OCCN3CCCC3)cc2)ncc1Cl`, the GI50 with HOP-62 NSCLC was 1.28 µM; in the test on 786-0 renal, 0.871 µM; in the test on MCF7 breast it was 0.895 µM; with BT-549 breast, 5.87 µM; with T-47D breast it was 6.47 µM; in the test with M14 melanoma, 0.832 µM. Also, the GI50 in the test on CAKI-1 renal was 7.44 µM; with KM12 colon it was 1.04 µM; in the test on PC-3 prostate it was 1.07 µM; with SW-620 colon, 1.12 µM. The TGI came to 3.88 µM in the test on HOP-62 NSCLC; 1.61 µM in the test on 786-0 renal; 1.84 µM in the test with MCF7 breast; 12.6 µM with BT-549 breast; 18 µM with T-47D breast; 1.68 µM with M14 melanoma. Moreover, the TGI is 14 µM in the test on CAKI-1 renal, 2.2 µM in the test with KM12 colon, 2.35 µM in the test with PC-3 prostate and 2.67 µM with SW-620 colon.

With `COc1cc2nnn3c4ncccc4c(N=O)c3c2cc1OC`, the GI50 in the test with HOP-62 NSCLC is 6.71 µM; with 786-0 renal it was 0.391 µM; in the test on MCF7 breast, 0.327 µM; with BT-549 breast, 9.43 µM; with T-47D breast, 0.317 µM; in the test on M14 melanoma it was 4.58 µM. Further, the GI50 was 0.131 µM in the test on CAKI-1 renal, 2.46 µM with KM12 colon, 5.62 µM with PC-3 prostate and 0.312 µM in the test with SW-620 colon. The TGI was 16.8 µM in the test with HOP-62 NSCLC; 2.48 µM in the test with 786-0 renal; more than 74.5 µM in the test on MCF7 breast; 64.6 µM in the test on BT-549 breast; more than 29.9 µM with T-47D breast; 13 µM with M14 melanoma. For the same compound, the TGI in the test with CAKI-1 renal is 1.27 µM; in the test on KM12 colon it was more than 100 µM; in the test with PC-3 prostate it was more than 100 µM; in the test on SW-620 colon it was more than 100 µM.

On to `CCOCNc1ccc(N2C(=O)/C(=C/c3ccc(N(CC)CC)cc3)N=C2c2ccccc2)cc1`, for which the GI50 in the test on HOP-62 NSCLC was 12.6 µM; in the test with 786-0 renal, 5.64 µM; in the test with MCF7 breast it was 36.5 µM; in the test with BT-549 breast, 33.5 µM; in the test with T-47D breast, 84 µM; with M14 melanoma, more than 100 µM. The GI50 in the test with CAKI-1 renal was 12.5 µM; with KM12 colon, 5.44 µM; with PC-3 prostate it was 5.83 µM; in the test on SW-620 colon, 41.5 µM. Further, the TGI in the test with HOP-62 NSCLC was 35.3 µM; in the test on 786-0 renal, 22.9 µM; in the test with MCF7 breast it was more than 100 µM; in the test on BT-549 breast, more than 100 µM; in the test on T-47D breast, more than 100 µM; with M14 melanoma it was more than 100 µM. In addition, the TGI in the test on CAKI-1 renal is 56.8 µM; in the test on KM12 colon, more than 100 µM; in the test with PC-3 prostate, more than 100 µM; in the test on SW-620 colon it was more than 100 µM.

These data come from PubChem BioAssay (NCI).
